Where two headings read alike, the source gives them in different places. Blank lines part the entries; values can stand above or below the compound they belong to.
How the values were obtained:
[1] = system: P. falciparum male gametocytes; experiment: P. falciparum Dual Gamete Formation Assay (PfDGFA), male readout (exflagellation); format: cell-based, Plasmodium falciparum NF54; conditions: for Activity: hit = >50% inhibition in male or female readout in at least 3 replicates, 0 = no class assigned
Procedure, shortened: (§1)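 NF54 mature gametocytes (d14), cpd 24 h 37°C hypoxic gas; trigger: xanthurenic acid ookinete medium + Cy3 anti-Pfs25, 4°C 4 min → 28°C 4 min. Male: exflagellation centres, brightfield x6. Female: Pfs25+ gametes, fluorescence, +24 h 28°C dark.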

[2] = system: P. falciparum female gametocytes; experiment: P. falciparum Dual Gamete Formation Assay (PfDGFA), female readout (Pfs25-positive female gametes); format: cell-based, Plasmodium falciparum NF54
Procedure, shortened: as §1

[3] = 2µM, 24h preincubation with gametocytes prior to induction of gametogenesis, average of replicates
[4] = 2µM, 24h preincubation with gametocytes prior to induction of gametogenesis, replicate R1
[5] = 2µM, 24h preincubation with gametocytes prior to induction of gametogenesis, replicate R3
[6] = 2µM, 24h preincubation with gametocytes prior to induction of gametogenesis, replicate R4
[7] = 2µM, 24h preincubation, number of replicates with >50% inhibition in the male readout
[8] = 2µM, 24h preincubation, number of replicates with >50% inhibition in the female readout
[9] = PfDGFA at 2µM, 24h preincubation with gametocytes prior to induction of gametogenesis, replicate R1
[10] = PfDGFA at 2µM, 24h preincubation with gametocytes prior to induction of gametogenesis, replicate R3
[11] = PfDGFA at 2µM, 24h preincubation with gametocytes prior to induction of gametogenesis, replicate R4
[12] = PfDGFA at 2µM, 24h preincubation, average of replicates
[13] = PfDGFA at 2µM, 24h preincubation with gametocytes, average of replicates
[14] = PfDGFA at 2µM, 24h preincubation with gametocytes, replicate R1
[15] = PfDGFA at 2µM, 24h preincubation with gametocytes, replicate R3
[16] = PfDGFA at 2µM, 24h preincubation with gametocytes, replicate R4
[17] = 2µM, 24h preincubation, hits selected on >50% inhibition in the male readout across replicates
[18] = PfDGFA at 2µM, 24h preincubation
[19] = 2µM, 24h preincubation, hits selected on >50% inhibition in the female readout across replicates

SMILES: COc1cccc(OC)c1CN1CCC(N(C)CCCCCCCCN2CCC(OC(=O)Nc3ccccc3-c3ccccc3)CC2)CC1 [TCMDC-134684]
- Average inhibition male (%) [1, 3]: 52.6%
- % inhibition male (individual replicates) R1 [1, 4]: 48.0%
- % inhibition male (individual replicates) R3 [1, 5]: 25.4%
- % inhibition male (individual replicates) R4 [1, 6]: 71.6%
- HitlevelM [1, 7]: 2
- Average inhibition female (%) [2, 3]: 31.6%
- % inhibition female (individual replicates) R1 [2, 4]: 24.1%
- % inhibition female (individual replicates) R3 [2, 5]: 24.2%
- % inhibition female (individual replicates) R4 [2, 6]: 37.8%
- HitlevelF [2, 8]: 0

SMILES: COc1ccc(NC(=O)[C@H](Cc2ccccc2)Nc2cc(C)nc(NCCc3ccccn3)n2)cc1.O=C(O)C(F)(F)F [TCMDC-134746]
- % inhibition male (individual replicates) R1 [1, 9]: -7.8%
- % inhibition male (individual replicates) R3 [1, 10]: -30.0%
- % inhibition male (individual replicates) R4 [1, 11]: 23.6%
- Average inhibition male (%) [1, 12]: -7.4%
- % inhibition female (individual replicates) R1 [2, 9]: 14.8%
- % inhibition female (individual replicates) R3 [2, 10]: -15.3%
- % inhibition female (individual replicates) R4 [2, 11]: -1.8%
- Average inhibition female (%) [2, 12]: 1.5%

SMILES: Cc1cc(N[C@@H](CC(C)C)C(=O)NCc2cccs2)nc(NCCc2cccs2)n1.O=C(O)C(F)(F)F [TCMDC-134815]
- % inhibition male (individual replicates) R1 [1, 9]: 11.4%
- % inhibition male (individual replicates) R3 [1, 10]: 4.6%
- % inhibition male (individual replicates) R4 [1, 11]: 26.9%
- Average inhibition male (%) [1, 12]: 17.0%
- % inhibition female (individual replicates) R1 [2, 9]: 9.6%
- % inhibition female (individual replicates) R3 [2, 10]: -33.2%
- % inhibition female (individual replicates) R4 [2, 11]: 28.8%
- Average inhibition female (%) [2, 12]: 0.8%

SMILES: CN1CCC(NCc2cccc(-c3nn(C)c4nc(NC5CCCC5)ncc34)c2)CC1 [TCMDC-134840]
- Average inhibition male (%) [1, 13]: 82.7%
- % inhibition male (individual replicates) R1 [1, 14]: 90.3%
- % inhibition male (individual replicates) R3 [1, 15]: 59.9%
- % inhibition male (individual replicates) R4 [1, 16]: 92.2%
- HitlevelM ([1]; number of replicates with >50% inhibition in the male readout, 2µM): 4
- Average inhibition female (%) [2, 13]: 22.7%
- % inhibition female (individual replicates) R1 [2, 14]: 22.9%
- % inhibition female (individual replicates) R3 [2, 15]: 25.6%
- % inhibition female (individual replicates) R4 [2, 16]: 7.8%
- HitlevelF ([2]; number of replicates with >50% inhibition in the female readout, 2µM): 0

SMILES: COc1ccc(NC(=O)[C@H](CC(C)C)Nc2cc(C)nc(NCc3ccccc3C)n2)cc1.O=C(O)C(F)(F)F [TCMDC-134909]
- Average inhibition male (%) [1, 3]: 9.0%
- % inhibition male (individual replicates) R1 [1, 4]: 15.3%
- % inhibition male (individual replicates) R3 [1, 5]: -6.1%
- % inhibition male (individual replicates) R4 [1, 6]: 18.9%
- HitlevelM [1, 17]: 0
- Activity [1, 18]: 0
- Average inhibition female (%) [2, 3]: 7.3%
- % inhibition female (individual replicates) R1 [2, 4]: 5.6%
- % inhibition female (individual replicates) R3 [2, 5]: -14.2%
- % inhibition female (individual replicates) R4 [2, 6]: 28.8%
- HitlevelF [2, 19]: 0

SMILES: NS(=O)(=O)c1cccc(Nc2nc(N[C@@H]3CCNC3)nc3cc[nH]c(=O)c23)c1.O=C(O)C(F)(F)F [TCMDC-135057]
- Average inhibition male (%) [1, 3]: -3.6%
- % inhibition male (individual replicates) R1 [1, 4]: -10.0%
- % inhibition male (individual replicates) R4 [1, 6]: -11.4%
- HitlevelM [1, 17]: 0
- Activity [1, 18]: 0
- Average inhibition female (%) [2, 3]: 3.8%
- % inhibition female (individual replicates) R1 [2, 4]: 4.1%
- % inhibition female (individual replicates) R3 [2, 5]: 1.9%
- % inhibition female (individual replicates) R4 [2, 6]: 9.1%
- HitlevelF [2, 19]: 0

SMILES: COc1ccccc1CNc1ccnc(N2CC(Oc3ccc(F)cc3)C2)n1 [TCMDC-135118]
- % inhibition male (individual replicates) R1 [1, 9]: 9.0%
- % inhibition male (individual replicates) R3 [1, 10]: -43.0%
- % inhibition male (individual replicates) R4 [1, 11]: 42.2%
- Average inhibition male (%) [1, 12]: 10.3%
- % inhibition female (individual replicates) R1 [2, 9]: 24.5%
- % inhibition female (individual replicates) R3 [2, 10]: -33.1%
- % inhibition female (individual replicates) R4 [2, 11]: 4.4%
- Average inhibition female (%) [2, 12]: 3.5%

SMILES: CN1CCN(CC2(Nc3nccc(NCCc4cn(C)c5ccccc45)n3)CCCCC2)CC1 [TCMDC-135122]
- Average inhibition male (%) [1, 3]: 31.6%
- % inhibition male (individual replicates) R1 [1, 4]: 31.6%
- % inhibition male (individual replicates) R3 [1, 5]: 5.8%
- % inhibition male (individual replicates) R4 [1, 6]: 52.9%
- HitlevelM [1, 7]: 1
- Average inhibition female (%) [2, 3]: 24.1%
- % inhibition female (individual replicates) R1 [2, 4]: 17.1%
- % inhibition female (individual replicates) R3 [2, 5]: 12.9%
- % inhibition female (individual replicates) R4 [2, 6]: 28.9%
- HitlevelF [2, 8]: 0

- IC50 ([1]; Plasmodium falciparum, PfDGFA, 24 h incubation with gametocytes before induction, exflagellation readout, read-out: Male IC50): 300 nM
- IC50 ([2]; Plasmodium falciparum, PfDGFA, 24 h incubation with gametocytes before induction, female gamete readout, read-out: Female IC50): > 10 µM
SMILES: C#C[C@H]1O[C@@H](n2cnc3c(Nc4cc(Br)cc(C(F)(F)F)c4)ncnc32)[C@H](O)[C@@H]1O [TCMDC-135185]
- Selectivity Ratio M ([1]; HepG2 Tox50 versus male IC50): 328.28
- inhibition at 2 µM ([1]; Plasmodium falciparum, 2µM, 24h preincubation with gametocytes, average of replicates, read-out: Average inhibition male (%)): 97%
- inhibition at 2 µM ([1]; Plasmodium falciparum, 2µM, 24h preincubation with gametocytes, replicate R1, read-out: % inhibition male (individual replicates) R1): 97.5%
- inhibition at 2 µM ([1]; Plasmodium falciparum, 2µM, 24h preincubation with gametocytes, replicate R2, read-out: % inhibition male (individual replicates) R2): 96.8%
- inhibition at 2 µM ([1]; Plasmodium falciparum, 2µM, 24h preincubation with gametocytes, replicate R3, read-out: % inhibition male (individual replicates) R3): 98%
- inhibition at 2 µM ([1]; Plasmodium falciparum, 2µM, 24h preincubation with gametocytes, replicate R4, read-out: % inhibition male (individual replicates) R4): 95.6%
- Selectivity ratio F ([2]; HepG2 Tox50 versus female IC50): 10
- inhibition at 2 µM ([2]; Plasmodium falciparum, 2µM, 24h preincubation with gametocytes, average of replicates, read-out: Average inhibition female (%)): 3.7%
- inhibition at 2 µM ([2]; Plasmodium falciparum, 2µM, 24h preincubation with gametocytes, replicate R1, read-out: % inhibition female (individual replicates) R1): 8.3%
- inhibition at 2 µM ([2]; Plasmodium falciparum, 2µM, 24h preincubation with gametocytes, replicate R2, read-out: % inhibition female (individual replicates) R2): -2.8%
- inhibition at 2 µM ([2]; Plasmodium falciparum, 2µM, 24h preincubation with gametocytes, replicate R3, read-out: % inhibition female (individual replicates) R3): -10.2%
- inhibition at 2 µM ([2]; Plasmodium falciparum, 2µM, 24h preincubation with gametocytes, replicate R4, read-out: % inhibition female (individual replicates) R4): 19.5%

SMILES: O=C(C1CCCC1)N1CCOC(CCN2CCC(c3ccccc3)CC2)(c2ccc(Cl)c(Cl)c2)C1 (stereo not shown) [TCMDC-135327]
- % inhibition male (individual replicates) R1 [1, 9]: 1.8%
- % inhibition male (individual replicates) R3 [1, 10]: 11.7%
- % inhibition male (individual replicates) R4 [1, 11]: 15.6%
- Average inhibition male (%) [1, 12]: 8.1%
- % inhibition female (individual replicates) R1 [2, 9]: 8.8%
- % inhibition female (individual replicates) R3 [2, 10]: -20.5%
- % inhibition female (individual replicates) R4 [2, 11]: 17.1%
- Average inhibition female (%) [2, 12]: -1.8%

SMILES: O=C(Nc1ccc(C(=O)OCC2CCCCC2)cc1)N[C@@H](Cc1ccc(O)cc1)C(=O)NC1CCN(Cc2ccc(O)cc2)C1.O=C(O)C(F)(F)F (stereo partly shown) [TCMDC-135357]
- Average inhibition male (%) [1, 3]: -19.1%
- % inhibition male (individual replicates) R1 [1, 4]: -13.6%
- % inhibition male (individual replicates) R3 [1, 5]: -12.1%
- % inhibition male (individual replicates) R4 [1, 6]: -40.5%
- HitlevelM [1, 17]: 0
- Activity [1, 18]: 0
- Average inhibition female (%) [2, 3]: 4.9%
- % inhibition female (individual replicates) R1 [2, 4]: 8.9%
- % inhibition female (individual replicates) R3 [2, 5]: 10.5%
- % inhibition female (individual replicates) R4 [2, 6]: 8.3%
- HitlevelF [2, 19]: 0

SMILES: C=C[C@]1(C)C[C@@H](OC(=O)CNC[C@@H](O)CN2C[C@H](c3ccnc4ccc(OC)nc34)OC2=O)[C@]2(C)[C@H](C)CC[C@]3(CCC(=O)[C@H]32)[C@@H](C)[C@@H]1O [TCMDC-135366]
- % inhibition male (individual replicates) R1 [1, 9]: -4.9%
- % inhibition male (individual replicates) R3 [1, 10]: -9.1%
- % inhibition male (individual replicates) R4 [1, 11]: 9.5%
- Average inhibition male (%) [1, 12]: -1.6%
- % inhibition female (individual replicates) R1 [2, 9]: -19.6%
- % inhibition female (individual replicates) R3 [2, 10]: -21.7%
- % inhibition female (individual replicates) R4 [2, 11]: -0.7%
- Average inhibition female (%) [2, 12]: -7.1%

SMILES: COc1cc(NC(=O)c2sc(-c3ccc(Cl)cc3)cc2NC(=O)c2cccnc2)ccc1OCCN1CCCC1 [TCMDC-135397]
- Average inhibition male (%) [1, 3]: 57.2%
- % inhibition male (individual replicates) R1 [1, 4]: 45.5%
- % inhibition male (individual replicates) R3 [1, 5]: 40.3%
- % inhibition male (individual replicates) R4 [1, 6]: 71.6%
- HitlevelM [1, 7]: 2
- Average inhibition female (%) [2, 3]: 46.9%
- % inhibition female (individual replicates) R1 [2, 4]: 19.3%
- % inhibition female (individual replicates) R3 [2, 5]: 58.0%
- % inhibition female (individual replicates) R4 [2, 6]: 48.0%
- HitlevelF [2, 8]: 2

SMILES: CCCCN(Cc1cc(Cl)c(OC)c(OC)c1)c1ccc(C(O)(C(F)(F)F)C(F)(F)F)cc1.O=C(O)C(F)(F)F [TCMDC-135446]
- % inhibition male (individual replicates) R1 [1, 9]: -14.8%
- % inhibition male (individual replicates) R4 [1, 11]: -29.5%
- Average inhibition male (%) [1, 12]: -22.3%
- % inhibition female (individual replicates) R1 [2, 9]: 1.9%
- % inhibition female (individual replicates) R3 [2, 10]: -6.9%
- % inhibition female (individual replicates) R4 [2, 11]: 1.5%
- Average inhibition female (%) [2, 12]: -3.4%

— article PMC10584170, “Machine learning-based phenotypic imaging to characterise the targetable biology of Plasmodium falciparum male gametocytes for the development of transmission-blocking antimalarials” (PLOS Pathogens, 2023)
